Measured values from paper PMC9076587 (RSC Advances, 2019).
“Also recorded” adds a separate entry of the source.

Tests used:
Format in all cases: cell-based
MCF-7 cells = experiment: MTT anti-proliferative assay, MCF-7; conditions: Homo sapiens, MCF7, read-out: IC50 MCF-7
MDA-MB-231 cells = experiment: MTT anti-proliferative assay, MDA-MB-231; conditions: for IC50: Homo sapiens, MDA-MB-231, read-out: IC50 MDA-MB-231; for selectivity between cell lines (in words): MDA-MB-231 versus MCF-7
HEK-293 cells = experiment: Cytotoxicity against non-tumorigenic HEK-293 cells; conditions: for IC50: Homo sapiens, HEK293, read-out: IC50 value in HEK293 cells

Row | Compound | IC50 (MCF-7 cells) [µM] | IC50 (MDA-MB-231 cells) [µM] | selectivity between cell lines (in words) (MDA-MB-231 cells) | cytotoxicity against HEK-293 cells (in words) (HEK-293 cells) | IC50 (HEK-293 cells) [µM]
1 | COc1ccc(/C(=C(/CCn2cc(CN3C(=O)C(=O)c4cc(Br)ccc43)nn2)c2ccccc2)c2ccccc2)cc1 [12b] | > 100 | 75.9 | selective against MDA-MB-231 cells | – | –
2 | COc1ccc(/C(=C(/CCn2cc(CN3C(=O)C(=O)c4cc(Br)cc(Br)c43)nn2)c2ccccc2)c2ccccc2)cc1 [12c] | 13.1 | 14.8 | – | moderately cytotoxic | 21.6
3 | COc1ccc(/C(=C(/CCn2cc(CN3C(=O)C4(OCCO4)c4cc(Cl)ccc43)nn2)c2ccccc2)c2ccccc2)cc1 [13a] | 21 | 20.4 | – | moderately cytotoxic | 43.9
4 | O=C1C(=O)N(Cc2cn(CC/C(=C(\c3ccccc3)c3ccc(OCCO)cc3)c3ccccc3)nn2)c2c(Br)cc(Br)cc21 [14e] | 31.6 | 19.2 | selective for the estrogen-independent MDA-MB-231 cells; also recorded: more selective towards the ER-cells | non-cytotoxic | > 100
5 | OCCOc1ccc(/C(=C(/CCCl)c2ccccc2)c2ccccc2)cc1 [OSP, Ospemifene, reference compound] | 55 | > 100 | – | – | –
6 | CC1=CC(=O)c2c(O)cccc2C1=O [Plumbagin, reference compound] | 3.5 | 4.4 | – | – | –

Now from value to compound, other results behind:

Row | IC50 (MCF-7 cells) [µM] | IC50 (MDA-MB-231 cells) [µM] | Compound | selectivity between cell lines (in words) (MDA-MB-231 cells) | cytotoxicity against HEK-293 cells (in words) (HEK-293 cells) | IC50 (HEK-293 cells) [µM]
7 | > 100 | > 100 | O=C1C(=O)N(Cc2cn(CC/C(=C(\c3ccccc3)c3ccc(OCCO)cc3)c3ccccc3)nn2)c2ccccc21 [14a] | – | – | –
8 | 33.1 | 18.1 | O=C1C(=O)N(Cc2cn(CC/C(=C(\c3ccccc3)c3ccc(OCCO)cc3)c3ccccc3)nn2)c2ccc(Cl)cc21 [14b] | selective for the estrogen-independent MDA-MB-231 cells | – | –
9 | 70.7 | 70.7 | O=C1C(=O)N(Cc2cn(CC/C(=C(\c3ccccc3)c3ccc(OCCO)cc3)c3ccccc3)nn2)c2ccc(F)cc21 [14c] | – | – | –
10 | > 100 | > 100 | O=C1C(=O)N(Cc2cn(CC/C(=C(\c3ccccc3)c3ccc(OCCO)cc3)c3ccccc3)nn2)c2ccc(Br)cc21 [14d] | – | – | –
11 | > 100 | > 100 | O=C1N(Cc2cn(CC/C(=C(\c3ccccc3)c3ccc(OCCO)cc3)c3ccccc3)nn2)c2ccc(Cl)cc2C12OCCO2 [15b] | – | – | –
12 | > 100 | > 100 | O=C1N(Cc2cn(CC/C(=C(\c3ccccc3)c3ccc(OCCO)cc3)c3ccccc3)nn2)c2ccc(F)cc2C12OCCO2 [15c] | – | – | –
13 | > 100 | > 100 | O=C1N(Cc2cn(CC/C(=C(\c3ccccc3)c3ccc(OCCO)cc3)c3ccccc3)nn2)c2ccc(Br)cc2C12OCCO2 [15d] | – | – | –
